The subject of assay [1] is NRSF binding site (NSRE) from the mouse homolog of the human snail promoter. Nature of the assay: SV40 luciferase reporter with snail promoter NRSE in HEK 293 cells. The following applies: HEK 293 cells grown overnight in the presence of glucose. It is filed as cell-based. The text has this: FIG. 12 is a graph showing repression of expression of a reporter gene using an SV40 promoter with or without the NRSF binding site from the human snail promoter. HG=glucose; Pyr=pyruvate; 2-DG=2-deoxyglucose.
To investigate whether the effects of 2-DG on gene expression is evidenced in genes known to be involved in metastatic growth, the NRSF binding site (NSRE) from the mouse homolog of the human snail promoter (GenBank Accession No. NM_005985), comprising a 440 bp nucleotide sequence
identified as SEQ ID NO. 6 was introduced into the SV40 promoter in the plasmid vector pGL3 (available from Promega, Madison, Wis.) at the BglII and Acc65I restriction enzyme recognition sites). In pGL3. a luciferase reporter gene is under the transcriptional control of the SV40 promoter, and in the construct described herein transcription from the SV40 promoter is regulated by NRSE/NRSF. Reporter plasmids with and without the NSRE insert were transfected into HEK 293 cells (ATCC Accession No. CRL 1573 ATCC, Manassas, Va.) and the cells grown overnight in the presence of glucose with and without pyruvate, 2-DG or both pyruvate and 2DG. […]
In general terms: A reporter such as luciferase makes a cellular process visible.

Assay [2] relates to actin promoter. Nature of the assay: ChIP on hippocampi of rats administered 2-DG or saline, actin promoter. In kind it is in vivo. Particulars: rat hippocampi, without regard to the glycolytic state. The text has this:
(§1) FIG. 10I is a graph of CHIP assays performed on hippocampi from rats administered 2-DG or saline for 2 weeks and using a cocktail of anti-CtBP1 and anti-CtBP2 antibody or sham antibody and primers flanking the BDNF NRSE or actin promoter. Data is plotted as quantity of DNA specifically precipitated in picograms.
(§2) The above results predicted that CtBP would be present at the BDNF NRSF binding site in rat hippocampi and that occupancy at this site should be augmented in the presence of 2-DG. To test this prediction, ChIP assays were performed using anti-CtBP antibody on chromatin isolated from 2DG-treated rats as above. Hippocampi from rats administered 2-DG or saline for 2 weeks were subjected to ChIP with a cocktail of anti-CtBP1 and anti-CtBP2 antibody or sham antibody and primers flanking the BDNF NRSE or actin promoter. […] CtBP was not detected at the actin promoter without regard to the glycolytic state of the animal, as expected for a gene not under NRSF regulatory control.

Assay [3] concerns BDNF NRSE. Description: ChIP on hippocampi of rats administered 2-DG or saline, BDNF NRSE. It is filed as in vivo, rat.
Source text: FIG. 10D is a graph showing the results of CHiP assays of ˜20 kB surrounding the NRSE element in the BDNF gene. The data is plotted as the quantity of DNA specifically precipitated (pg).
FIG. 10E is a graph showing the results of CHiP assays wherein chromatin precipitated with anti-H3K9-dimethyl or sham antibody and primers flanking the BDNF NRSE. The data is plotted as the quantity of DNA specifically precipitated (pg).
FIG. 10F is a graph showing the results of CHiP assays wherein chromatin was precipitated with anti-NRSF or sham antibody and primers flanking the BDNF or actin promoter. The data is plotted as the quantity of DNA specifically precipitated (pg).
as §1
To determine whether 2-DG mediated suppression of BDNF levels was associated with a decreased level of histone H3 Lysine^9 acetylation, hippocampii from 2-DG treated or control rats were crosslinked with 1% formaldehyde and subjected to chromatin immunoprecipitation assays (ChIPs), performed as in Roopra et al.(2004, Mol Cell 14: 727-38) with an antibody specific to acetylated H3-K9. The graphs shown in FIGS. 10A through 10C show the results of experiments in which the amount (in ng) of DNA associated with nucleosomes comprising modified or unmodified H3 histone proteins was detected for an endogenous, NRSE/NRSF-regulated gene (CHRM4) in JTC-19 cells grown in the presence of 2-DG or glucose. […] However, the amount of CtBP recruited to CHRM4, the NRSF target gene, increased 5-fold in the presence of 2-DG.
ChIP assays also were performed over 20 Kb spanning the BDNF NRSE to detect deacetylated histone H3K9. In these experiments, hippocampi from rats administered 2-DG or saline for 2 weeks were subjected to CHIP with anti-H3K9-acetyl (obtained from BD-Pharmigen) or sham antibody and primers flanking BDNF NRSE or sequence 2, 5 or 10 Kb up- or downstream from the BDNF NRSE element.
Alternatively, when chromatin from the above experiments was precipitated with anti-NRSF or sham antibody and primers flanking the BDNF NRSE or actin promoter, specific binding was found at the NSRE element and not associated with the actin promoter.
as §2

For assay [4], the system named is BDNF. Nature of the assay: QRT-PCR of hippocampal tissue from kindled rats, BDNF. In kind it is in vivo, rat. The text has this: (§3) Values plotted are BDNF or TrkB expression over Actin using rat hippocampal cDNA from an untreated rat for a standard curve. Specifically, mRNA was extracted from hippocampus tissue from rats treated with 2-DG or untreated control rats subjected to kindling stimulation to mimic epilepsy. […] The levels of actin mRNA were not affected by 2-DG treatment. Importantly, the differences in expression of BDNF or TrkB in the absence or presence of 2DG were present after 5 ADs in association with a large difference in AD threshold between 2DG-treated and control rats (FIG. 3 lanes 5 versus 6 and 7 versus 8).

For assay [5], the system named is TrkB. Description: QRT-PCR of hippocampal tissue from kindled rats, TrkB. It is filed as in vivo, rat.
Source text: as §3

Assay [6] deals with hippocampal gene expression. Nature of the assay: microarray hybridization of rat hippocampus mRNA (Affymetrix Rat Array). In kind it is in vivo. The following applies: of 35,000 genes comprising the microarray. How it is done: In view of the results with BDNF and TrkB, hippocampal gene expression changes in rats treated with and without 2-DG were assessed by hybridization using microarrays (Affymetrix Rat Array (35,000 genes represented), Affymetrix, Santa Clara, Calif.). Hybridizations were performed according to the manufacturer's instructions using mRNA isolated from rat hippocampus from rats following dietary restriction or treatment with drug (2-DG). […] Genes of interest in disease states detected in these experiments include but are not limited to snail (NM_005985), MDR3/MRP3 (GenBank Accession No. M23234), MTA1 (NM_004689), DCC (NM_005215), Netrin (U75586), and β-catenin (X87838)(metastasis); BDNF (NM_170731) and TrkB (NM_006180) (neurological disorders) and atrial natriuretic peptide (ANP; NM_000907)(cardiac hypertrophy/myocardial infarction).

[7] abbreviates: rats that experienced 3 Class V seizures.

These results are taken from patent US7557085B2, “Metabolic-based methods for modulating gene expression” (Wisconsin Alumni Research Foundation, priority 2005, dated 2009).

Consider `O=CC[C@@H](O)[C@H](O)[C@H](O)CO` [2-DG, 2-deoxy-D-glucose], for which, in assay [1], the “reporter gene expression (ratio of SV40-driven to NRSE/SV40 luciferase expression)” value is reported as “decreased”. In addition, the “CtBP at the actin promoter” value in assay [2] is “not detected”. Moreover, the “H3K9 methylation status at the BDNF NRSE” value in assay [3] (anti-H3K9-dimethyl antibody, rat hippocampi) is on record as “robust increase”. Also, in assay [3] (anti-NRSF antibody, rat hippocampi), the “NRSF binding to the BDNF NRSE” value is listed as “not affected”. Moreover, the “associated histone acetylation levels for BDNF DNA” value in assay [3] (drug treatment, rat hippocampus) is “lowered”. In assay [3] (rats administered 2-DG or saline for 2 weeks, anti-CtBP1 and anti-CtBP2 cocktail), the “CtBP occupancy at the BDNF NRSE” value was “significantly increased”. In addition, the “H3K9 acetylation at the NRSE element compared to controls” value in assay [3] (rats administered 2-DG or saline for 2 weeks, only amplicon over 20 Kb to change) was “marked reduction”. Further, the “hippocampal BDNF expression compared to control animals” value in assay [4] (QRT-PCR, expression over actin, FIG. 3 lanes 1 versus 2) is “significantly reduced”. In assay [4] (after 5 ADs), the “difference in expression of BDNF in absence or presence of 2DG” value is on record as “present”. Besides, in assay [4] (setting [7]), the “BDNF expression, 2DG-treated versus control rats” value is given as “no difference in expression”. Also, the “hippocampal TrkB expression compared to control animals” value in assay [5] (QRT-PCR, expression over actin, FIG. 3 lanes 3 versus 4) is recorded as “significantly reduced”. In assay [5] (after 5 ADs), the “difference in expression of TrkB in absence or presence of 2DG” value was “present”. In addition, in assay [5] (setting [7]), the “TrkB expression, 2DG-treated versus control rats” value was “no difference in expression”. Further, in assay [6], the “number of genes down-regulated by drug treatment” value stood at 349 and the “number of genes transcriptionally upregulated by drug treatment” value is on record as 241.
